From patent publication US6979747B2, “Antioxidants, preparation processes and their uses” (Centre National de la Recherche Scientifique (CNRS), priority 1999, dated 2005)

What was measured:
HIV provirus = assay: Quantification of proviral DNAs by PCR (integration of the provirus within the cell genome); type: cell-based; conditions: PCR of proviral DNA
Method: I-152 is composed of MEA and NAC, which are capable of interacting with the early phases of the biological cycle of HIV. It is therefore capable of decreasing the integration of the provirus into the cell genome. In order to measure these effects, the proviral DNAs were quantified by PCR. The cells were lysed using 1 ml of the following lysis solution: 10 mM Tris HCl pH 8; 100 mM of EDTA pH 8; 0.5% of sodium dodecyl sulfate (SDS); 20 μg/ml of DNAse-free bovine pancreatic RNAse. 200 μg/ml of proteinase K are subsequently added to this suspension. The DNAs were subsequently extracted using 1 ml of an ice-cold saturated phenol solution and 1 ml of a […] solution.
The viral DNAs were then amplified by means of specific primers of the gag gene (SK01/SK39) and of a standard range of the 8E5 line, a chronically infected line, the cells of which carry a proviral copy. The β-globin gene was used as reporter gene in order to make sure of the quality of the DNA extraction.

[1] = test system: total glutathione (GSH+GSSG); assay: Total intracellular glutathione in quiescent PBMCs; type: cell-based, human
TNF-α = assay: Synthesis of TNF-α in MDMs stimulated with LPS and IFN-γ; type: cell-based, human; conditions: MDMs stimulated with LPS (1 μg/ml) and IFN-γ (100 IU/ml)
Method: The synthesis of tumor necrosis factor (TNF-α) was […] in the MDM culture supernatants using the calorimetric kit sold by Cayman.
The compound I-152 and its derivatives are prepared extemporaneously by being dissolved in dimethyl sulfoxide (DMSO) at the concentration of 100 mM. They are subsequently stored at −20° C. after having been diluted 10 fold in phosphate buffer (PBS).
Tumor necrosis factor (TNF-α), like the oxygen-comprising or nitrogen-comprising radical components, plays a major role in the apoptotic processes associated with infection the HIV. Furthermore, the radical components can promote the synthesis of this proinflammatory cytokine. For this reason, the effects of I-152 in decreasing the synthesis of TNF-α were thus looked for in MDMs stimulated by a bacterial lipopolysaccharide and interferon (IFN-γ).

## CC(=O)N[C@@H](CS)C(=O)NCCSC(C)=O [I-152, N-(N-acetyl-L-cysteinyl)-S-acetylcysteamine]
HIV provirus
  integration of the provirus (in words): inhibits the integration of the provirus
[1]; from concentrations supplementing the culture medium giving equivalent glutathione
  times more active than NAC: 120 times
[1]; quiescent PBMCs, 250 μM
  intracellular glutathione at high concentration (in words): decrease
[1]; quiescent PBMCs, 24 h treatment
  effect on intracellular level of glutathione (in words): increases the intracellular level of glutathione
[1]; quiescent PBMCs, dose 125 μM
  intracellular concentration of total glutathione: 2.64 ± 0.13 µM
TNF-α
  synthesis of TNF-α (in words): inhibits the synthesis of TNF-α
